Data as given in US20080312211A1, “Antibacterial Pyrrolopyridines, Pyrrolopyrimidines and Pyrroloazepines-154” (ASTRAZENECA AB, priority 2005, published 2008).

Experiments:
Streptococcus pneumoniae = test: Bacterial susceptibility testing in liquid media (MIC); format: cell-based; parameters: unit not given here; settings: lowest concentration reducing growth by 80% or more; 37 degrees C., 24 hrs
Experimental: Compounds were tested for antimicrobial activity by susceptibility testing in liquid media. Compounds were dissolved in dimethylsulfoxide and tested in 10 doubling dilutions in the susceptibility assays. The organisms used in the assay were grown overnight on suitable agar media and then suspended in a liquid medium appropriate for the growth of the organism. The suspension was a 0.5 McFarland and a further 1 in 10 dilution was made into the same liquid medium to prepare the final organism suspension in 100 μL. Plates were incubated under appropriate conditions at 37 degrees C. for 24 hrs prior to reading. The Minimum Inhibitory Concentration was determined as the lowest drug concentration able to reduce growth by 80% or more.

| SMILES | melting point | MIC (Streptococcus pneumoniae) |
| --- | --- | --- |
| COC(=O)c1cnc(N2CCC(n3c(=O)[nH]c4c(C#N)c(C)[nH]c4c3=O)CC2)s1 [Example 1, Methyl 2-[4-(7-cyano-6-methyl-2,4-dioxo-1,2,4,5-tetrahydro-3H-pyrrolo[3,2-d]pyrimidin-3-yl)piperidin-1-yl]-1,3-thiazole-5-carboxylate] | > 345 °C (dec.) | – |
| COC1CN(c2ncc(C(=O)O)s2)CCC1n1ccc2c(Cl)c(C)[nH]c2c1=O (stereo not drawn) [Example 22, 2-[3,4-cis-4-(3-Chloro-2-methyl-7-oxo-1,7-dihydro-6H-pyrrolo[2,3-c]pyridin-6-yl)-3-methoxypiperidin-1-yl]-1,3-thiazole-5-carboxylic acid] | – | 50 |
